Like-named read-outs stand apart in the source and are kept apart here.
Columns and labels:
[1] = tested on: Peripheral blood mononuclear cells co-cultured with venular endothelial cells (HUVEC) (LPS system); assay: BioMAP LPS system; assay type: cell-based, human; settings: Homo sapiens, HUVEC, 24 h, 10 uM, procedure of Example 827
[2] = tested on: Venular Endothelial cells (HUVEC) (4H system); assay: BioMAP 4H system (IL-4 and histamine); assay type: cell-based, human; settings: procedure of Example 826; for % decrease in Eotaxin-3: 1 uM
[3] = tested on: Methylmalonic Acidemia (MMA) primary fibroblasts Tsi 5224; assay: Mitochondrial respiration, XFe96 Extracellular Flux Analyzer (OCR/ECAR), MMA fibroblasts Tsi 5224; assay type: cell-based; settings: Homo sapiens, Fibroblast, read-out: Increase in Maximal Respiratory Capacity AUC;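 note: relative to vehicle DMSO control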
Protocol: The effect of the compounds of the present disclosure on mitochondrial respiration was measured with a XFe96 Extracellular Flux Analyzer (Seahorse Bioscience, Agilent Technologies) and Oxygen consumption Rate (OCR) and Extracellular acidification rate (ECAR) determined.
Cell culture and treatments. Primary adherent fibroblasts were cultured in minimum essential medium (MEM) (Gibco, 25030081) supplemented with 2 mM L-Glutamine (Gibco, 25030081), 15% fetal bovine serum (FBS) (Gibco, 26400044) and 1% penicillin/streptomycin (Gibco, 5140122) at 37° C. and 5% CO2. Cells were collected for either passaging or experiment at ˜70-80% confluence. Cells were obtained by trypsinization and seeded at 20000 cells/well in cell culture microplates (Seahorse Bioscience, 101085-004) and allowed to adhere for 16 hours in culture media.
By profiling different primary cells and/or optimizing their culture media or environmental components one can select cell lines and/or conditions that are appropriate for the biological or disease model. In the present example, 24 hours prior to OCR and ECAR profiling, media was changed to Dulbecco's Modified Eagle Medium (DMEM, Agilent Seahorse 103575-100) with the appropriate supplements for the different primary cells (10 mM glucose, 2 mM L-glutamine, 1 mM pyruvate, 10% FBS; 1 mM glucose, 2 mM L-glutamine, 1 mM pyruvate, 10% FBS; 10 mM glucose, 10% FBS; 5 mM glucose 10% FBS; 1 mM glucose 10% FBS). Cells used in this example were: Propionic Acidemia (PA) (GM00371, GM03590 Coriell Institute for Medical Research, Tsi 6337, Tsi 4626, Tsi 3618 Trans-Hit Bio), Methylmalonic Acidemia (MMA) (GM01673, Coriell Institute for Medical Research, Tsi 5224 Trans-Hit Bio), Branched chain ketoacid dehydrogenase kinase (BCKDK) (GM00612, GM00649 Coriell Institute for Medical Research), Subnormal activation of pyruvate dehydrogenase complex (PDH) (GM01503 Coriell Institute for Medical Research), Very long-chain acyl-CoA dehydrogenase (VLCAD) (GM17475), Leigh Syndrome (LS) (GM03672, GM13411 Coriell Institute for Medical Research), Pyruvate Carboxylase Deficiency (PC) (GM00444 Coriell Institute for Medical Research), Glutaric Acidemia-I (GA) (GM10653), Friedreich's Ataxia (FXN) (GM04078 Coriell Institute for Medical Research, Huntington's disease (HD) (GM21756 Coriell Institute for Medical Research), Ornithine Transcarbamylase Deficiency (OTC) (GM12756 Coriell Institute for Medical Research), Kearns-Sayre Syndrome (KSS) (GM06225 Coriell Institute for Medical Research).
One hour before the assay, the cells were washed with freshly prepared unbuffered serum free-Seahorse XF Assay medium (Seahorse Bioscience, North America, USA, 103575-100) with the same supplements as for the previous 24 hour incubation.
After baseline measurements of OCR, cells were challenged with compounds of the present disclosure at different concentrations (10 to 50 μM) or vehicle (DMSO, 0.1%) and a post-compound baseline was recorded. OCR was measured after sequentially adding to each well 1 μg/ml oligomycin (inhibitor of ATP synthase Sigma-Aldrich, 753531), then maximal OCR was determined with carbonyl cyanide 4-(trifluoromethoxy) phenylhydrazone (FCCP, Sigma-Aldrich, C2920), (uncoupler of oxidative phosphorylation) and 0.5 μM of rotenone (Sigma-Aldrich, R8875) plus antimycin A (Sigma-Aldrich, A8674) (inhibitors of mitochondrial complex I and III) for determination of rotenone-antimycin insensitive respiration together with Hoechst for nuclear staining in situ when normalized to cell counts. After the analysis and nuclear staining, the XFp microplate was transferred to the Cytation 5, and the nuclear images were captured, the individual nuclei were identified and counted by BioTek Gen5 software. Data were expressed as pmol of O2 per minute and normalized by nuclear staining and baselined to pre-compound addition.
Assay conditions were as stated below.
Assay specifics on assay conditions are indicated below when readouts were normalized to cell counts. […]

[4] = tested on: monocyte-derived M1 macrophages; assay: M1 differentiation assay (macrophage TNFα, IL6, IL10 ELISA, FACS); assay type: cell-based, human; settings: Homo sapiens, Macrophage
Protocol: Monocytes were isolated by positive isolation with CD14+ microbeads (Miltenyi, 130-050-201). Monocytes were 99% viable and were 96% purity as analyzed by FACS and CD14+ (BD, 563561). 100,000 monocytes along with compounds at the dose of 10 and 50 μM were allowed to differentiate to macrophages with 10 ng/ml GMCSF (R&D, 15-GM-050/CF) in RPMI complete media (Invitrogen, 22400089) with 15% FBS (Hyclone SV30087.03) and 1% Penicillin-Streptomycin (Gibco, 15140-122). On day 2 and 4 half the media was refreshed with fresh GM-CSF and compounds at 10 and 50 μM dose. On day 6 the macrophages were matured with GMCSF, IFNγ (R&D 285-IF-100/CF) and LPS (Sigma, L6143) in the presence of 10 μM and 50 μM of compounds. After 24h, supernatant was collected for the measurement of TNFα (DKW, 1117202) IL6 (DKW, 1110602), IL10 (DKW, 1110003) by ELISA. Macrophages were detached gently on ice with EDTA (Invitrogen, 15575-038) and analyzed by FACS (BD LSR Fortessa, 853492). Cells were stained for live/dead dye, surface and intracellular markers with fixation/permeabilization solution (BD, 554714) and ALIVE/DEAD™ Fixable Near-IR Dead Cell Stain Kit (BD, L34976), mouse anti human CD86 APC (BD, 555660), mouse anti-human CD163 PE (BD, 556018), mouse anti-human CD68 FITC (BD, 562117) or isotype controls anti-mouse IgG1 κ PE (BD, 559320) and anti-mouse IgG1 κ APC (BD, Anti mouse IgG1 κ APC (BD, 55571). Mature M1 macrophages were defined as CD86+CD68+CD163− and increase in TNFα, IL6, and decrease in IL-10.

HepG2 cells = assay: Mitochondrial membrane potential (MITO-ID MP detection Kit); assay type: cell-based; settings: Homo sapiens, 168 h, 7 days
Protocol: HepG2 cells (ATCC, HB-8065) were cultured (5% CO2 at 37° C.) and plated in Poly-D-Lysine 384-Well plate (Corning, 356663) at a density of 160000 cells/mL in 50 μL/well. Culture and assay media consisted of DMEM (Gibco, 11995-065) supplemented with 1% Penicillin-Streptomycin and 10% FBS (Hyclone, SV30087.03).
MITO-ID® MP detection Kit (ENZ-51018) was used and manufacturer instructions followed. Cells were allowed to settle for 30 min at room temperature and further incubated overnight (37° C. and 5% CO2) for adherence. Next day, test compounds (50-10 μM) and vehicle DMSO (0.2%) were added at the recommended volumes to the 384-well plate for 7 days without media change using a Tecan compound dispenser. All the solutions and wash buffers were prepared and dispensed according to manufacturer's volumes for a 384-well plate format.

[5] = tested on: primary fibroblasts (healthy controls and PA, MMA, BCKDK, PDH, VLCAD, LS, PC, GA, VLCFA, KSS, FXN, HD); assay: Measurement of ROS (H2DCFDA) in primary fibroblasts; assay type: cell-based, human; settings: Homo sapiens, procedure Example 812
Protocol: Primary adherent fibroblasts were cultured in minimum essential medium (MEM) (Gibco, 25030081) supplemented with 2 mM L-Glutamine (Gibco, 25030081), 15% fetal bovine serum (FBS) (Gibco, 26400044) and 1% penicillin/streptomycin (Gibco, 5140122) at 37° C. and 5% CO2. Cells were collected for either passaging or experiment at ˜70-80% confluence. Cells were obtained by trypsinization and seeded in cell culture microplates either white plate (Thermo Fisher Scientific, 152028) for luminescent measurement or black plate (Thermo Fisher Scientific, 165305) for fluorescent based read out for different assays listed below. Cells were obtained by trypsinization and […] were seeded and allowed to adhere for 16-18 hours to have confluency around 70-80% in the cell well with culture media. After 24 hours prior to measurements (37° C., 5% CO2) media was changed to Dulbecco's Modified Eagle Medium (DMEM, Agilent Seahorse cat #103575-100) with the appropriate supplements as stated below.
Primary fibroblasts assayed were Healthy controls (GM00041, GM05659, GM23974 Coriell Institute for Medical Research), Propionic Acidemia (PA) (GM00371, GM03590 Coriell Institute for Medical Research, Tsi 6337 Trans-Hit Bio), Methylmalonic Acidemia (MMA) (GM01673, Coriell Institute for Medical Research, Tsi 5224, Tsi 4290 Trans-Hit Bio), Branched chain ketoacid dehydrogenase kinase (BCKDK) (GM00612, GM00649 Coriell Institute for Medical Research), Subnormal activation of pyruvate dehydrogenase complex (PDH) (GM01503 Coriell Institute for Medical Research), Very long-chain acyl-CoA dehydrogenase (VLCAD) (GM17475), Leigh Syndrome (LS) (GM03672, GM13411 Coriell Institute for Medical Research), Pyruvate Carboxylase Deficiency (PC) (GM00444 Coriell Institute for Medical Research), Glutaric Acidemia-I (GA), Impaired VLCFA oxidation (VLCFA) (GM13262), Kearns-Sayre Syndrome (KSS) (GM06225 Coriell Institute for Medical Research), Friedreich's Ataxia (FXN), Huntington's disease (HD) (GM21756 Coriell Institute for Medical Research). Next, cells were treated with compounds (10 μM) and ROS H2DCFDA (22 μM) dye for 2 hours in PA, MMA lines and for 24h for the other fibroblast lines. Kinetic read was started immediately with a i3x plate reader (492/527 nm) for 60 minutes.
A total dead cell count was performed as described in Example 817 and only alive cells were used for analysis.

[6] = MMA Tsi 5224, assay condition A (10 mM glucose, 2 mM L-glutamine, 1 mM pyruvate, 10% FBS)
[7] = Fibroblast, BCKD GM00612, Assay Condition A, read-out: Decreased ROS by at least 10%

Work on `CC(C)(CO)[C@@H](O)C(=O)NCCC(=O)NCCS` [Prep Ex 5] yielded an inhibition at 10 µM ([1]; read-out: % decrease in IL-1α) of at least 20%, an inhibition at 10 µM ([1]; read-out: % decrease in IL-8) of at least 10% and an inhibition at 10 µM ([1]; read-out: % decrease in TissueFactor) of at least 10%. It also gave an activation at 10 µM ([1]; read-out: % increase in sTNFα) of at least 20% and an inhibition at 10 µM ([2]; Homo sapiens, HUVEC, 24 h, 10 uM, read-out: % decrease in E-Selectin) of at least 20%.

`C/C=C/C(=O)CC(=O)SCCNC(=O)CCNC(=O)[C@H](O)C(C)(C)CO` [Compound 36, (2R)-2,4-dihydroxy-3,3-dimethyl-N-[2-[(2-[[(4E)-3-oxohex-4-enoyl]sulfanyl]ethyl)carbamoyl]ethyl]butanamide] was tested, and the activation at 10 µM [3, 6] was at least 10% and the “% decrease in Eotaxin-3” value [2] was at least 10%.

Work on `CC1(C)OC(=O)C(CC(=O)SCCNC(=O)CCNC(=O)[C@H](O)C(C)(C)CO)O1` (stereo partly drawn) [Compound 1238, S-(2-(3-((R)-2,4-dihydroxy-3,3-dimethylbutanamido)propanamido)ethyl) 2-(2,2-dimethyl-5-oxo-1,3-dioxolan-4-yl)ethanethioate] yielded an activation at 10 µM [3, 6] of at least 10%, an inhibition at 10 µM ([4]; 10 uM, read-out: % decrease in Macrophage TNFα Secretion) of at least 30% and an activation at 50 µM (HepG2 cells; 50 uM, read-out: % increase in Mitochondrial Membrane Potential) of 20%.

`CC(C)(CO)[C@@H](O)C(=O)NCCC(=O)NCCSC(=O)C(O)CO` (stereo partly shown) [Compound 399] gave an activation at 10 µM ([3]; MMA Tsi 5224, assay condition D (1 mM glucose, 10% FBS)) of at least 10%, an inhibition at 10 µM (HepG2 cells; 10 uM, read-out: % decrease in Mitochondrial Membrane Potential) of over 30% and an inhibition at 10 µM [5, 7] of at least 10%.

With `CCC(=O)C(C)C(=O)SCCNC(=O)CCNC(=O)[C@H](O)C(C)(C)CO` (stereo partly drawn) [Compound 1251, S-(2-(3-((R)-2,4-dihydroxy-3,3-dimethylbutanamido)propanamido)ethyl) 2-methyl-3-oxopentanethioate] the inhibition at 50 µM ([4]; read-out: % decrease in Macrophage IL-6 Secretion) was at least 30%, the inhibition at 50 µM ([4]; read-out: % decrease in Macrophage TNFα Secretion) was at least 30% and the inhibition at 50 µM (HepG2 cells; 50 uM, read-out: % decrease in Mitochondrial Membrane Potential) was over 30%. It also gave an inhibition at 10 µM [5, 7] of at least 10%, an inhibition at 10 µM ([5]; Fibroblast, VLCFA GM13262, Assay Condition C, read-out: Decreased ROS by at least 30%) of at least 30% and an inhibition at 10 µM ([5]; FXN GM04078, Assay Condition C, read-out: Decreased ROS by at least 10%) of at least 10%. The inhibition at 10 µM ([5]; FXN GM04078, Assay Condition C, read-out: Decreased ROS by at least 30%) was at least 30%.

With `COC(=O)C[C@H](N)C(=O)SCCNC(=O)CCNC(=O)[C@H](O)C(C)(C)CO` [Compound 451] the “% decrease in Eotaxin-3” value [2] was at least 10%.

In the case of `CC(=O)NCCCC(=O)OCC(C)(C)[C@@H](O)C(=O)NCCC(=O)NCCSC(=O)CC(=O)NCCc1c[nH]cn1` [Compound 633], the “% decrease in Eotaxin-3” value [2] is reported as at least 10%.

Source: patent US20230107216A1, “PANTETHEINE DERIVATIVES AND USES THEREOF” (Comet Therapeutics, Inc., priority 2018, published 2023)
